In EPA's ToxRefDB 2:

What was measured:
mouse [1] = settings: Combined chronic toxicity/carcinogenicity, other, Oral, Feed, dose end: 80 week, group: systemic
rat [2] = settings: Subchronic oral toxicity in rodents, wistar, Feed, dose end: 13 week, group: systemic
rat [3] = settings: Prenatal developmental toxicity study, sprague dawley, Oral, Gavage/Intubation, dose end: 15 GD
rabbit [4] = settings: Prenatal developmental toxicity study, new zealand white, Oral, Gavage/Intubation, dose end: 18 GD
mouse [5] = settings: Carcinogenicity, other, Oral, Feed, dose end: 18 month, group: systemic
mouse [6] = settings: Subchronic oral toxicity in rodents, other, Feed, dose end: 13 week, group: systemic
rat [7] = settings: Subchronic oral toxicity in rodents, sprague dawley, Gavage/Intubation, dose end: 91 day, group: systemic
rat [8] = settings: Multigenerational reproductive toxicity study, sprague dawley, Oral, Feed, dose end: 2 generation
mouse [9] = settings: Carcinogenicity, cd1, Oral, Feed, dose end: 78 week, group: systemic
rat [10] = settings: Subchronic oral toxicity in rodents, sprague dawley, Feed, dose end: 13 week
rat [11] = settings: Prenatal developmental toxicity study, Sprague-Dawley, Oral, Gavage/Intubation, dose end: 15 GD
dog [12] = settings: Chronic toxicity, beagle, Oral, Capsule, dose end: 12 month
rabbit [13] = settings: Prenatal developmental toxicity study, new zealand white, Oral, Gavage/Intubation, dose end: 19 GD
dog [14] = settings: Subchronic oral toxicity in nonrodent, beagle, Feed, dose end: 3 month
[15] = systemic / clinical chemistry / immunoglobulins / immunoglobulins + systemic / pathology microscopic / thymus / cyst
[16] = systemic / clinical chemistry / aspartate aminotransferase (ast/sgot) / aspartate aminotransferase (ast/sgot) + systemic / in life …
[17] = group: developmental, developmental / developmental malformation / bone / unossified + systemic / in life observation / body weight / fetal weight
[18] = group: maternal, systemic / in life observation / body weight / body weight gain + systemic / in life observation / clinical signs / poor general condition
[19] = group: maternal, systemic / in life observation / body weight / body weight gain + systemic / in life observation / clinical signs / poor general condition…
[20] = group: developmental, systemic / in life observation / body weight / fetal weight
[21] = group: developmental, systemic / in life observation / body weight / fetal weight + developmental / developmental malformation / bone / unossified
[22] = group: maternal, systemic / in life observation / body weight / body weight gain + reproductive / reproductive performance / aborted / aborted + systemic / …
[23] = systemic / clinical chemistry / immunoglobulins / immunoglobulins
[24] = systemic / organ weight / adrenal gland / absolute
[25] = systemic / organ weight / adrenal gland / absolute + systemic / clinical chemistry / albumin / albumin + systemic / clinical chemistry / …
[26] = systemic / in life observation / mortality / mortality + systemic / pathology microscopic / kidney / hydronephrosis + systemic / clinical …
[27] = group: offspring, systemic / in life observation / body weight / offspring (pup) weight
[28] = group: parental, systemic / in life observation / body weight / body weight
[29] = group: parental, systemic / in life observation / body weight / body weight + systemic / pathology microscopic / heart / cardiomyopathy
[30] = systemic / in life observation / body weight / body weight + systemic / in life observation / food consumption / food consumption
[31] = group: cholinesterase, cholinesterase / cholinesterase / cholinesterase / brain cholinesterase (che) + cholinesterase / cholinesterase / cholinesterase / plasma …
[32] = group: cholinesterase, cholinesterase / cholinesterase / cholinesterase / plasma cholinesterase (che)
[33] = group: systemic, systemic / in life observation / body weight / body weight + systemic / in life observation / body weight / body weight gain + systemic / in…
[34] = group: systemic, systemic / in life observation / body weight / body weight + systemic / in life observation / body weight / body weight gain + systemic / …
[35] = group: developmental, developmental / developmental malformation / bone / unossified + developmental / developmental malformation / trunk / omphalocele + systemic…
[36] = group: maternal, reproductive / reproductive performance / resorptions / resorptions + systemic / in life observation / body weight / body weight + systemic…
[37] = group: systemic, systemic / pathology microscopic / thymus / atrophy
[38] = group: cholinesterase, cholinesterase / cholinesterase / cholinesterase / erythrocyte cholinesterase (che) + cholinesterase / cholinesterase / cholinesterase / …
[39] = group: maternal, systemic / in life observation / body weight / body weight + systemic / in life observation / clinical signs / fur (altered appearance) + …
[40] = group: systemic, systemic / in life observation / clinical signs / salivation + systemic / clinical chemistry / urea nitrogen / urea nitrogen + systemic / in…

In the case of `[OH-].c1cc[c]([Sn+]([c]2ccccc2)[c]2ccccc2)cc1` [Triphenyltin hydroxide], the LEL (mouse [1]; [15]) is reported as 0.85 mg/kg/day, the NEL (mouse [1]; [15]) is reported as < 0.85 mg/kg/day and the NOAEL (mouse [1]; systemic / clinical chemistry / immunoglobulins / immunoglobulins + systemic / pathology microscopic / thymus / cyst + systemic / in life …) is reported as 3.5 mg/kg/day. For the same compound, the LOAEL (mouse [1]; systemic / in life observation / body weight / body weight gain + systemic / organ weight / liver / absolute + systemic / organ weight / …) was 15.2 mg/kg/day, the LEL (rat [2]; systemic / clinical chemistry / aspartate aminotransferase (ast/sgot) / aspartate aminotransferase (ast/sgot) + systemic / clinical …) was 1.56 mg/kg/day and the LOAEL (rat [2]; [16]) was 7.41 mg/kg/day. For the same compound, the NEL (rat [2]; [16]) was 0.3 mg/kg/day, the NOAEL (rat [2]; [16]) was 1.56 mg/kg/day and the LEL (rat [3]; [17]) was 8 mg/kg/day. It also gave an LOAEL (rat [3]; [17]) of 8 mg/kg/day, an NEL (rat [3]; [17]) of 2.8 mg/kg/day and an NOAEL (rat [3]; [17]) of 2.8 mg/kg/day. The LEL (rat [3]; [18]) was 2.8 mg/kg/day, the LOAEL (rat [3]; [18]) was 2.8 mg/kg/day and the NEL (rat [3]; [19]) was 1 mg/kg/day. For the same compound, the NOAEL (rat [3]; [19]) was 1 mg/kg/day, the LOAEL (rabbit [4]; [20]) was 0.9 mg/kg/day and the LEL (rabbit [4]; [21]) was 0.9 mg/kg/day. The NEL (rabbit [4]; [21]) was 0.3 mg/kg/day, the NOAEL (rabbit [4]; [21]) was 0.3 mg/kg/day and the LOAEL (rabbit [4]; group: maternal, systemic / in life observation / body weight / body weight gain) was 0.3 mg/kg/day. The NEL (rabbit [4]; [22]) was 0.1 mg/kg/day, the NOAEL (rabbit [4]; [22]) was 0.1 mg/kg/day and the LEL (rabbit [4]; group: maternal, systemic / in life observation / body weight / body weight gain + systemic / in life observation / body weight / body weight + systemic / in…) was 0.3 mg/kg/day. For the same compound, the LOAEL (mouse [5]; [23]) was 0.85 mg/kg/day, the NOAEL (mouse [5]; [23]) was < 0.85 mg/kg/day and the LEL (mouse [5]; [15]) was 0.85 mg/kg/day. For the same compound, the NEL (mouse [5]; [15]) was < 0.85 mg/kg/day, the LEL (mouse [6]; [24]) was 4.12 mg/kg/day and the LOAEL (mouse [6]; [24]) was 4.12 mg/kg/day. The NEL (mouse [6]; [25]) was 0.88 mg/kg/day and the NOAEL (mouse [6]; [25]) was 0.88 mg/kg/day.
In the case of `[PH]=[Zn].[PH]=[Zn].[Zn]` [Zinc phosphide], the NEL (rat [7]; systemic / in life observation / clinical signs / body cold to touch + systemic / in life observation / clinical signs / salivation + …) is reported as 0.1 mg/kg/day, the LOAEL (rat [7]; systemic / in life observation / mortality / mortality + systemic / pathology microscopic / kidney / hydronephrosis) is reported as 1 mg/kg/day and the LEL (rat [7]; [26]) is reported as 1 mg/kg/day. It also gave an NOAEL (rat [7]; [26]) of 0.1 mg/kg/day.
Work on `CCCN(CCC)C(=O)SCC` [EPTC] yielded an LEL (rat [8]; [27]) of 40 mg/kg/day, an LOAEL (rat [8]; [27]) of 40 mg/kg/day and an NEL (rat [8]; [27]) of 10 mg/kg/day. For the same compound, the NOAEL (rat [8]; [27]) was 10 mg/kg/day, the NEL (rat [8]; [28]) was 2.5 mg/kg/day and the NOAEL (rat [8]; [28]) was 2.5 mg/kg/day. The LEL (rat [8]; [29]) was 10 mg/kg/day, the LOAEL (rat [8]; [29]) was 10 mg/kg/day and the LEL (mouse [9]; systemic / in life observation / body weight / body weight) was 90 mg/kg/day. The LOAEL (mouse [9]; [30]) was 270 mg/kg/day, the NEL (mouse [9]; [30]) was 30 mg/kg/day and the NOAEL (mouse [9]; [30]) was 90 mg/kg/day. The LOAEL (rat [10]; [31]) was > 120 mg/kg/day, the NOAEL (rat [10]; [31]) was ≥ 120 mg/kg/day and the LEL (rat [10]; [32]) was 72 mg/kg/day. It also gave an NEL (rat [10]; [32]) of 15 mg/kg/day, an LOAEL (rat [10]; [33]) of 15 mg/kg/day and an NOAEL (rat [10]; [33]) of 3 mg/kg/day. The LEL (rat [10]; [34]) was 3 mg/kg/day, the NEL (rat [10]; [34]) was < 3 mg/kg/day and the LEL (rat [11]; [35]) was 300 mg/kg/day. The LOAEL (rat [11]; [35]) was 300 mg/kg/day, the NEL (rat [11]; [35]) was 100 mg/kg/day and the NOAEL (rat [11]; [35]) was 100 mg/kg/day. The LEL (rat [11]; group: maternal, reproductive / reproductive performance / postimplantation loss / postimplantation loss) was 100 mg/kg/day, the LOAEL (rat [11]; [36]) was 300 mg/kg/day and the NEL (rat [11]; [36]) was 30 mg/kg/day. It also gave an NOAEL (rat [11]; [36]) of 100 mg/kg/day, an LEL (dog [12]; [32]) of 8 mg/kg/day and an LOAEL (dog [12]; [32]) of 8 mg/kg/day. The NEL (dog [12]; [32]) was 1 mg/kg/day, the NOAEL (dog [12]; [32]) was 1 mg/kg/day and the NOAEL (dog [12]; group: systemic, systemic / pathology microscopic / lung / fibrosis + systemic / pathology microscopic / lung / inflammation + systemic / clinical chemistry…) was 1 mg/kg/day. The LOAEL (dog [12]; group: systemic, systemic / pathology microscopic / lung / fibrosis + systemic / pathology microscopic / lung / inflammation + systemic / in life observation…) was 8 mg/kg/day, the LEL (dog [12]; [37]) was 1 mg/kg/day and the NEL (dog [12]; [37]) was < 1 mg/kg/day. For the same compound, the LEL (rabbit [13]; [38]) was 5 mg/kg/day, the LOAEL (rabbit [13]; [38]) was 5 mg/kg/day and the NEL (rabbit [13]; [38]) was < 5 mg/kg/day. For the same compound, the NOAEL (rabbit [13]; [38]) was < 5 mg/kg/day, the LEL (rabbit [13]; [20]) was 300 mg/kg/day and the LOAEL (rabbit [13]; [20]) was 300 mg/kg/day. It also gave an NEL (rabbit [13]; [20]) of 40 mg/kg/day, an NOAEL (rabbit [13]; [20]) of 40 mg/kg/day and an LEL (rabbit [13]; [39]) of 300 mg/kg/day. It also gave an LOAEL (rabbit [13]; [39]) of 300 mg/kg/day, an NEL (rabbit [13]; [39]) of 40 mg/kg/day and an NOAEL (rabbit [13]; [39]) of 40 mg/kg/day. For the same compound, the LEL (dog [14]; [32]) was 45 mg/kg/day, the LOAEL (dog [14]; [32]) was 45 mg/kg/day and the NEL (dog [14]; [32]) was 15 mg/kg/day. It also gave an NOAEL (dog [14]; [32]) of 15 mg/kg/day, an LOAEL (dog [14]; group: systemic, systemic / in life observation / clinical signs / salivation) of 45 mg/kg/day and an LEL (dog [14]; [40]) of 45 mg/kg/day. The NEL (dog [14]; [40]) was 15 mg/kg/day and the NOAEL (dog [14]; [40]) was 15 mg/kg/day.
